In US11753407B2, “Compounds for treating spinal muscular atrophy” (PTC Therapeutics, Inc., priority 2012, dated 2023):

Legend:
[1] = tested on: SMN2 minigene mRNA (SMN2-A minigene) in HEK293H cells; test: SMN2 minigene mRNA splicing RT-qPCR assay in cultured cells; assay type: cell-based, human; details: Homo sapiens, HEK293-H; concentration increasing full length SMN2 mRNA 1.5-fold relative to vehicle-treated cells; HEK293H cells with SMN2-A minigene, 24 hours, 7-point concentration data; read-out: EC1.5x for production of full length SMN2 mRNA
Procedure, shortened: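 HEK293H cells stably carrying the SMN2-A minigene were treated for 24 h at 37 °C with a 7-point, 3.16-fold dilution series of compound. Multiplex RT-qPCR measured exon 7-containing minigene FL mRNA against GAPDH, expressed relative to vehicle by modified ΔΔCt; the EC1.5× is the concentration giving a 1.5-fold increase.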

[2] = tested on: Smn protein in SMA patient fibroblast cells (GM03813); test: Smn protein assay in cultured cells (SMN HTRF); assay type: cell-based, human; details: SMA patient fibroblast cells, 48 hours; for EC1.5x for Smn protein expression: 7-point concentration curve, SMN HTRF, concentration producing 1.5 times Smn protein vs DMSO vehicle control; for maximum fold (Fold) increase of Smn protein: 7-point concentration data, fold relative to vehicle control
Procedure, shortened: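 SMA patient fibroblasts (5,000 cells/well, DMEM-10% FBS) were treated for 48 h at 37 °C with a 7-point, 3.16-fold dilution series in triplicate. RIPA lysates were probed by HTRF (anti-SMN d2/kryptate, overnight, room temperature), reading 665/620 nm. EC1.5× is the concentration giving 1.5-fold Smn over DMSO vehicle.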

Row | SMILES | melting point [°C] | EC (1.5-fold increase) [1] [µM] | EC1.5x for Smn protein expression [2] | maximum fold (Fold) increase of Smn protein [2]
1 | Cc1cn2nc(-c3cc(=O)n4cc(N5C[C@@H](C)N[C@@H](C)C5)ccc4n3)cc2cn1 [Compound 442, 7-[(3R,5S)-3,5-dimethylpiperazin-1-yl]-2-(6-methylpyrazolo[1,5-a]pyrazin-2-yl)-4H-pyrido[1,2-a]pyrimidin-4-one] | 258 to 260 | < 0.1 | **** (an EC1.5x≤0.3 μM is indicated by four stars (****)) | ***** (a fold increase >1.65 is indicated by five stars (*****))
2 | CN(C)c1ccc(-c2cc(=O)n3cc(C4=CCNCC4)ccc3n2)cn1 [Compound 444, 2-[6-(dimethylamino)pyridin-3-yl]-7-(1,2,3,6-tetrahydropyridin-4-yl)-4H-pyrido[1,2-a]pyrimidin-4-one] | 255 to 257 | 0.3 to 1 | ** (an EC1.5× between >1 μM and ≤3 μM is indicated by two stars (**)) | *** (a fold increase between >1.35 and ≤1.5 is indicated by three stars (***))
3 | CCc1cc(N2CCN[C@H](C)C2)cn2c(=O)cc(-c3ccc(OC)c(OC)c3)nc12 [Compound 447, 2-(3,4-dimethoxyphenyl)-9-ethyl-7-[(3R)-3-methylpiperazin-1-yl]-4H-pyrido[1,2-a]pyrimidin-4-one] | 140 to 147 | 0.1 to 0.3 |  | * (A maximum fold increase of ≤1.2 is indicated by one star (*))
4 | CN1CC=C(c2ccc3nc(-c4ccc5c(cnn5C)c4)cc(=O)n3c2)CC1 [Compound 449, 2-(1-methyl-1H-indazol-5-yl)-7-(1-methyl-1,2,3,6-tetrahydropyridin-4-yl)-4H-pyrido[1,2-a]pyrimidin-4-one] | 148 to 150 | < 0.1 | **** (an EC1.5x≤0.3 μM is indicated by four stars (****)) | **** (a fold increase between >1.5 and ≤1.65 is indicated by four stars (****))
5 | CN1CC=C(c2ccc3nc(-c4ccc(N(C)C)nc4)cc(=O)n3c2)CC1 [Compound 450, 2-[6-(dimethylamino)pyridin-3-yl]-7-(1-methyl-1,2,3,6-tetrahydropyridin-4-yl)-4H-pyrido[1,2-a]pyrimidin-4-one] | 214 to 216 | 0.3 to 1 |  | ** (a fold increase between >1.2 and ≤1.35 is indicated by two stars (**))
6 | CCc1cc(N2CCN3CCC[C@@H]3C2)cn2c(=O)cc(-c3ccc(OC)c(OC)c3)nc12 [Compound 455, 2-(3,4-dimethoxyphenyl)-9-ethyl-7-[(8aR)-hexahydropyrrolo[1,2-a]pyrazin-2(1H)-yl]-4H-pyrido[1,2-a]pyrimidin-4-one] | 180 to 184 | 0.1 to 0.3 |  | ** (a fold increase between >1.2 and ≤1.35 is indicated by two stars (**))
7 | COCCNC1CCN(c2cc(C)c3nc(-c4ccc(OC)c(OC)c4)cc(=O)n3c2)CC1 [Compound 456, 2-(3,4-dimethoxyphenyl)-7-{4-[(2-methoxyethyl)amino]piperidin-1-yl}-9-methyl-4H-pyrido[1,2-a]pyrimidin-4-one] | 178 to 182 | 0.1 to 0.3 |  | *** (a fold increase between >1.35 and ≤1.5 is indicated by three stars (***))
8 | Cc1cn2nc(-c3cc(=O)n4cc(N5CCN(C)CC5)cc(C)c4n3)cc2c(C)n1 [Compound 457, 2-(4,6-dimethylpyrazolo[1,5-a]pyrazin-2-yl)-9-methyl-7-(4-methylpiperazin-1-yl)-4H-pyrido[1,2-a]pyrimidin-4-one] | 262 to 271 | < 0.1 | **** (an EC1.5x≤0.3 μM is indicated by four stars (****)) | ***** (a fold increase >1.65 is indicated by five stars (*****))

More lines, main results first:

Row | melting point [°C] | SMILES | EC (1.5-fold increase) [1] [µM] | EC1.5x for Smn protein expression [2] | maximum fold (Fold) increase of Smn protein [2]
9 | 298 to 300 | Cc1cn2cc(-c3cc(=O)n4cc(C5CCNCC5)ccc4n3)ccc2n1 [Compound 438, 2-(2-methylimidazo[1,2-a]pyridin-6-yl)-7-(piperidin-4-yl)-4H-pyrido[1,2-a]pyrimidin-4-one] | < 0.1 | **** (an EC1.5x≤0.3 μM is indicated by four stars (****)) | ***** (a fold increase >1.65 is indicated by five stars (*****))
10 | 240 to 242 | Cc1nc2ccc(-c3cc(=O)n4cc(C5CCN(C)CC5)ccc4n3)cc2s1 [Compound 439, 2-(2-methyl-1,3-benzothiazol-6-yl)-7-(1-methylpiperidin-4-yl)-4H-pyrido[1,2-a]pyrimidin-4-one] | 0.1 to 0.3 | ** (an EC1.5× between >1 μM and ≤3 μM is indicated by two stars (**)) | *** (a fold increase between >1.35 and ≤1.5 is indicated by three stars (***))
11 | 230 to 240 | Cc1cn2nc(-c3cc(=O)n4cc(N5CCN(C)CC5)ccc4n3)cc2cn1 [Compound 440, 7-(4-methylpiperazin-1-yl)-2-(6-methylpyrazolo[1,5-a]pyrazin-2-yl)-4H-pyrido[1,2-a]pyrimidin-4-one] | < 0.1 | **** (an EC1.5x≤0.3 μM is indicated by four stars (****)) | **** (a fold increase between >1.5 and ≤1.65 is indicated by four stars (****))
12 | 235 to 240 | Cc1cn2nc(-c3cc(=O)n4cc(N5CCN[C@@H](C)C5)ccc4n3)cc2cn1 [Compound 441, 7-[(3S)-3-methylpiperazin-1-yl]-2-(6-methylpyrazolo[1,5-a]pyrazin-2-yl)-4H-pyrido[1,2-a]pyrimidin-4-one] | < 0.1 | **** (an EC1.5x≤0.3 μM is indicated by four stars (****)) | ***** (a fold increase >1.65 is indicated by five stars (*****))
13 | 208 to 210 | CCN(CC)C1CCN(c2ccc3nc(-c4ccc5nc(C)cn5c4)cc(=O)n3c2)CC1 [Compound 445, 7-[4-(diethylamino)piperidin-1-yl]-2-(2-methylimidazo[1,2-a]pyridin-6-yl)-4H-pyrido[1,2-a]pyrimidin-4-one] | < 0.1 | *** (an EC1.5× between >0.3 μM and ≤1 μM is indicated by three stars (***)) | *** (a fold increase between >1.35 and ≤1.5 is indicated by three stars (***))
14 | 164 to 171 | COc1ccc(-c2cc(=O)n3cc(N4CCC(N(C)CCO)CC4)cc(C)c3n2)cc1OC [Compound 446, 2-(3,4-dimethoxyphenyl)-7-{4-[(2-hydroxyethyl)(methyl)amino]piperidin-1-yl}-9-methyl-4H-pyrido[1,2-a]pyrimidin-4-one] | < 0.1 | ** (an EC1.5× between >1 μM and ≤3 μM is indicated by two stars (**)) | *** (a fold increase between >1.35 and ≤1.5 is indicated by three stars (***))
15 | 218 to 220 | Cc1cn2cc(-c3cc(=O)n4cc(C5CCN(C)CC5)ccc4n3)ccc2n1 [Compound 448, 2-(2-methylimidazo[1,2-a]pyridin-6-yl)-7-(1-methylpiperidin-4-yl)-4H-pyrido[1,2-a]pyrimidin-4-one] | < 0.1 | **** (an EC1.5x≤0.3 μM is indicated by four stars (****)) | ***** (a fold increase >1.65 is indicated by five stars (*****))
16 | 232 to 235 | CCN(CC)C1CCN(c2ccc3nc(-c4cc5c(C)nc(C)cn5n4)cc(=O)n3c2)CC1 [Compound 451, 7-[4-(diethylamino)piperidin-1-yl]-2-(4,6-dimethylpyrazolo[1,5-a]pyrazin-2-yl)-4H-pyrido[1,2-a]pyrimidin-4-one] | < 0.1 | *** (an EC1.5× between >0.3 μM and ≤1 μM is indicated by three stars (***)) | ***** (a fold increase >1.65 is indicated by five stars (*****))
17 | 220 to 222 | Cc1cn2nc(-c3cc(=O)n4cc(C5CCN(C)CC5)ccc4n3)cc2c(C)n1 [Compound 453, 2-(4,6-dimethylpyrazolo[1,5-a]pyrazin-2-yl)-7-(1-methylpiperidin-4-yl)-4H-pyrido[1,2-a]pyrimidin-4-one] | < 0.1 | **** (an EC1.5x≤0.3 μM is indicated by four stars (****)) | ***** (a fold increase >1.65 is indicated by five stars (*****))
18 | 170 to 172 | CCN1CCC(c2ccc3nc(-c4cc5c(C)nc(C)cn5n4)cc(=O)n3c2)CC1 [Compound 454, 2-(4,6-dimethylpyrazolo[1,5-a]pyrazin-2-yl)-7-(1-ethylpiperidin-4-yl)-4H-pyrido[1,2-a]pyrimidin-4-one] | < 0.1 | **** (an EC1.5x≤0.3 μM is indicated by four stars (****)) | ***** (a fold increase >1.65 is indicated by five stars (*****))
